# Test results: ChEMBL document CHEMBL4396925, “Malabaricone C as Natural Sphingomyelin Synthase Inhibitor against Diet-Induced Obesity and Its Lipid Metabolism in Mice” (ACS Med Chem Lett, 2019)
# Activity calls are given as the source filed them. The calls are words filed in the database; no cut-off is given here.
# Experiments:
# [1] = target: T1, Phosphatidylcholine:ceramide cholinephosphotransferase 2 (Homo sapiens, UniProt Q8NHU3); test: Inhibition of SMS2 (unknown origin) stably expressed in mouse ZS cells using C6-NBD-ceramide as substrate preincubated for 30 mins followed by substrate addition and measured after 3 hrs by HPLC analysis; assay type: cell-based
# T1 sequence (Q8NHU3 whole entry): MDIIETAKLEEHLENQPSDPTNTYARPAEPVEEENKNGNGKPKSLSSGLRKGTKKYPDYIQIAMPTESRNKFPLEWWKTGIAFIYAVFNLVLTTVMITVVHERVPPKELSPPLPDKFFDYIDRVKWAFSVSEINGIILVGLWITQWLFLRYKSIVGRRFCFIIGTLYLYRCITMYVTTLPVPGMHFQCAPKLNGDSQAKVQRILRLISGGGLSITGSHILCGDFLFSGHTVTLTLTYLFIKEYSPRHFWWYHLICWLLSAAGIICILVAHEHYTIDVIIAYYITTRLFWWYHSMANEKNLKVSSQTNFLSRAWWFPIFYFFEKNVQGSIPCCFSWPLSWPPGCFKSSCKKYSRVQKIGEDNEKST
# [2] = target: T2, Phosphatidylcholine:ceramide cholinephosphotransferase 1 (Homo sapiens, UniProt Q86VZ5); test: Inhibition of SMS1 (unknown origin) stably expressed in mouse ZS cells using C6-NBD-ceramide as substrate preincubated for 30 mins followed by substrate addition and measured after 3 hrs by HPLC analysis; assay type: cell-based
# T2 sequence (Q86VZ5 whole entry): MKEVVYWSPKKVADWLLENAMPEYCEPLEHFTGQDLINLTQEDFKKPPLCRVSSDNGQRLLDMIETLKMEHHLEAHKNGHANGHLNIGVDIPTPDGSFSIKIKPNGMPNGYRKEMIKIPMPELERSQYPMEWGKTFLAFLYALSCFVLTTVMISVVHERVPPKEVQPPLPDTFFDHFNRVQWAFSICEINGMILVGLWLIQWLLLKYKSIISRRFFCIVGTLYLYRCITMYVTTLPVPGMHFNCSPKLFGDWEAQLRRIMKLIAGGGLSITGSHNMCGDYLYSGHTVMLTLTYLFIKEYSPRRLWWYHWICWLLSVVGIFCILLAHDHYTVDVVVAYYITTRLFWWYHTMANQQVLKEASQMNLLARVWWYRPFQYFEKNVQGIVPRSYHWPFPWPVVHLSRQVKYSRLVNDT
# [3] = target: T1, Phosphatidylcholine:ceramide cholinephosphotransferase 2; test: Noncompetitive inhibition of SMS2 (unknown origin) stably expressed in mouse ZS cells using 5 to 50 uM C6-NBD-ceramide as substrate preincubated for 30 mins followed by substrate addition and measured after 3 hrs by HPLC analysis; assay type: cell-based
# [4] = target: T2, Phosphatidylcholine:ceramide cholinephosphotransferase 1; test: Noncompetitive inhibition of SMS1 (unknown origin) stably expressed in mouse ZS cells using 5 to 50 uM C6-NBD-ceramide as substrate preincubated for 30 mins followed by substrate addition and measured after 3 hrs by HPLC analysis; assay type: cell-based
# Mus musculus [5] = species on record: Mus musculus; test: Antiobesity activity in HFD-induced obese C57BL/6J mouse model assessed as decrease in liver weight relative to control; assay type: functional, organism-based
# HepG2 [6] = test: Lipid lowering activity in human HepG2 cells assessed as reduction in oleic acid-induced lipid droplet formation by nile red staining based fluorescence microscopic method; assay type: functional, cell-based
# Mus musculus [7] = species on record: Mus musculus; test: Antiobesity activity in HFD-induced obese C57BL/6J mouse model assessed as decrease in body weight measured after 20 days relative to control; assay type: functional; parameters: scale not given: the % may be the effect or the level left
# MEF = test: Cytotoxicity against MEF cells at 0.01 to 1 mM incubated for 3 hrs by CCK8 assay relative to control; assay type: cell-based; details: mouse, 1000 µM
# Mus musculus [8] = species on record: Mus musculus; test: Antiobesity activity in HFD-induced obese C57BL/6J mouse model assessed as reduction in TG level in liver by ELISA; assay type: functional, organism-based
# [9] = target: T3, Phosphatidylcholine:ceramide cholinephosphotransferase 2 (Mus musculus) (UniProt Q9D4B1); test: Inhibition of SMS2 in HFD-induced obese C57BL/6J mouse liver tissue lysate using NBD-ceramide as substrate assessed as reduction in […] preincubated for 30 mins followed by substrate addition and measured after 3 hrs by HPLC analysis; assay type: subcellular
# T3 sequence (whole entry): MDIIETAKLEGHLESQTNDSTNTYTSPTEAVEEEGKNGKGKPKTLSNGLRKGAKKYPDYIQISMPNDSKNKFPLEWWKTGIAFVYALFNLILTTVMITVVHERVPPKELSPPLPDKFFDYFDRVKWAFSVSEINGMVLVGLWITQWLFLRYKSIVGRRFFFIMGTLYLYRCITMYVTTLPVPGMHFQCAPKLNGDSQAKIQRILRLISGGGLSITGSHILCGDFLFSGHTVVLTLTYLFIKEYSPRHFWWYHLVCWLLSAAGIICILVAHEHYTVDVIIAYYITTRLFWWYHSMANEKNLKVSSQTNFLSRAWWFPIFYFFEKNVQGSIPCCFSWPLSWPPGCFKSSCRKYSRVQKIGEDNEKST
# [10] = target: T4, Phosphatidylcholine:ceramide cholinephosphotransferase 1 (Mus musculus, UniProt Q8VCQ6); test: Inhibition of SMS1 in MEF cells using C6-NBD-ceramide as substrate preincubated for 1 hr followed by substrate addition and measured after 1 hr by HPLC analysis; assay type: cell-based
# T4 sequence (Q8VCQ6 whole entry): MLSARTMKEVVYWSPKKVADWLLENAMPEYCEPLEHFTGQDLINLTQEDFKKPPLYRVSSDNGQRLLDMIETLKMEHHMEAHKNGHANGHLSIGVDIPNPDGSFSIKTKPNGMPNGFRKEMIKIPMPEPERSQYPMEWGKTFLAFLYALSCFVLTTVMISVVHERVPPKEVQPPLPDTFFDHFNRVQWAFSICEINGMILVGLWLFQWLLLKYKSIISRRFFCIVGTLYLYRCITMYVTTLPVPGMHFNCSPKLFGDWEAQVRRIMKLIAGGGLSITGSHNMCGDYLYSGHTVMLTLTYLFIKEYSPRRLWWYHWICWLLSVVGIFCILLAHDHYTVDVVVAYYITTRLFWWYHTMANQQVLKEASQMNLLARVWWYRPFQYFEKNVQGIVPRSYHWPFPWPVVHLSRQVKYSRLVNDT
# [11] = Toxicity in HFD-induced obese C57BL/6J mouse model assessed as effect on behavior measured over 2 months; details: in vivo, 1461 h
# Mus musculus [12] = test: Antiobesity activity in HFD-induced obese C57BL/6J mouse model assessed as increase in glucose tolerance administrated orally for 8 weeks and measured post treatment by OGTT assay; assay type: functional, organism-based
# [13] = Toxicity in HFD-induced obese C57BL/6J mouse model assessed as induction of leaner phenotype measured over 2 months; details: in vivo, 1461 h
# Mus musculus [14] = species on record: Mus musculus; test: Antiobesity activity in HFD-induced obese C57BL/6J mouse model assessed as improved lipid metabolism by oil red O-staining based histopathological analysis; assay type: functional, organism-based
# Mus musculus [15] = species on record: Mus musculus; test: Antiobesity activity in HFD-induced obese C57BL/6J mouse model assessed as reduction in TG level in plasma by ELISA; assay type: functional, organism-based
# Mus musculus [16] = species on record: Mus musculus; test: Antiobesity activity in HFD-induced obese C57BL/6J mouse model assessed as resistance in steatosis development in liver by oil red O-staining based histopathological analysis; assay type: functional, organism-based
# HepG2 [17] = test: Lipid lowering activity in human HepG2 cells assessed as reduction in oleic acid-induced intracellular TG accumulation by ELISA; assay type: functional, cell-based
# HepG2 [18] = test: Lipid lowering activity in human HepG2 cells assessed as prevention in oleic acid-induced CD36/FAT activation; assay type: functional, cell-based
# [19] = Toxicity in HFD-induced obese C57BL/6J mouse model assessed as effect on health measured over 2 months; details: in vivo, 1461 h
# [20] = target: T5, Phosphatidylcholine:ceramide cholinephosphotransferase 1 (Mus musculus) (UniProt Q8VCQ6); test: Inhibition of SMS1 in HFD-induced obese C57BL/6J mouse liver tissue lysate using […] as substrate assessed as reduction in SM synthesis preincubated for 30 mins followed by substrate addition and measured after 3 hrs by HPLC analysis; assay type: subcellular
# T5 sequence (whole entry): T4 sequence (Q8VCQ6 whole entry)
# HepG2 [21] = test: Lipid lowering activity in human HepG2 cells assessed as change in oleic acid-induced free fatty acid level by ELISA; assay type: functional, cell-based
# Mus musculus [22] = species on record: Mus musculus; test: Antiobesity activity in HFD-induced obese C57BL/6J mouse model assessed as decrease fat content in liver; assay type: functional, organism-based
# [23] = target: T6, Phosphatidylcholine:ceramide cholinephosphotransferase 2 (Mus musculus, UniProt Q9D4B1); test: Inhibition of SMS2 in MEF cells using C6-NBD-ceramide as substrate preincubated for 1 hr followed by substrate addition and measured after 1 hr by HPLC analysis; assay type: cell-based
# T6 sequence (Q9D4B1 whole entry): T3 sequence (whole entry)
# Mus musculus [24] = species on record: Mus musculus; test: Antiobesity activity in HFD-induced obese C57BL/6J mouse model assessed as reduction in free fatty acid level in plasma by ELISA; assay type: functional, organism-based
# [25] = Toxicity in HFD-induced obese C57BL/6J mouse model assessed as effect in daily food intake relative to control; details: in vivo
structure (smiles),measurement,setting,value
O=C(CCCCCCCCc1ccc(O)cc1)c1c(O)cc(O)cc1O,IC50,[1],4.5 µM
same,IC50,[2],6 µM
O=C(CCCCCCCCc1ccccc1)c1c(O)cccc1O [MALABARICONE A],IC50,[1],4 µM
same,IC50,[3],1 to 3 µM
same,IC50,[2],4 µM
same,IC50,[4],2 to 3 µM
O=C(CCCCCCCCc1ccc(O)cc1)c1c(O)cccc1O [MALABARICONE B],IC50,[1],2.5 µM
same,IC50,[3],1 to 3 µM
same,IC50,[2],3.5 µM
same,IC50,[4],2 to 3 µM
O=C(CCCCCCCCc1ccc(O)c(O)c1)c1c(O)cccc1O [MALABARICONE C],Activity,Mus musculus [5],Active
same,Activity,HepG2 [6],Dose-dependent effect
same,Activity,Mus musculus [7],42.7%
same,Activity,MEF,56 to 97%
same,Activity,Mus musculus [8],Active
same,inhibition,[9],Active
same,IC50,[1],1.5 µM
same,IC50,[10],13 µM
same,Activity,[11],Non-Toxic
same,IC50,[3],1 to 3 µM
same,Activity,Mus musculus [12],Active
same,IC50,[2],3 µM
same,Activity,[13],Toxic
same,Activity,Mus musculus [14],Active
same,Activity,Mus musculus [15],Active
same,Activity,Mus musculus [16],Active
same,Activity,HepG2 [17],Dose-dependent effect
same,Activity,HepG2 [18],Dose-dependent effect
same,Activity,[19],Non-Toxic
same,inhibition,[20],Active
same,Activity,HepG2 [21],inactive
same,Activity,Mus musculus [22],Active
same,IC50,[23],11 µM
same,IC50,[4],2 to 3 µM
same,Activity,Mus musculus [24],Active
same,Activity,[25],Non-Toxic
